One series is described as follows: Acute toxicity test. To be noted: mouse, in vivo, ip; male ddy mice, intraperitoneal, solution in physiological saline, up-down method. Here is the method: Male ddy mice weighing about 20 g were used. A solution of the compound in physiological saline was injected intraperitoneally. The dose lethal to 50% of mice was determined by the up-down method.
For series [1], the system named is passive cutaneous anaphylaxis (PCA). The experiment in a line: Effect on passive cutaneous anaphylaxis (PCA). The series is classed as in vivo, male Wister rats. Particulars: 1 hour prior to antigen challenge, rat. Here is the method:
(1) Effect on passive cutaneous anaphylaxis (PCA)
A serum containing the homocytotropic antibody was intracutaneously injected at four points of the shaven back of the male Wister rats weighing 180 to 200 g. Fourty-eight hours after the injection, a physiological saline containing 2.0 mg of DNP-As and 2.5 mg of Evans Blue to induce response, and the rats were dehematized to death in 30 minutes. […] The present compounds were administered to the rats 1 hour prior to the antigen challenge.

In general, LD50 refers to the dose expected to kill half of the subjects tested. A low value points to greater toxicity. Usually inhibition in vivo stands for how much of the control response was suppressed. Lower therefore signals a weak effect.

As for `C[S+](C)CCC(=O)Nc1ccc(OCC(O)CO)cc1.Cc1ccc(S(=O)(=O)[O-])cc1` (centres unmarked) [Compound 4, 2-{4-(2,3-dihydroxypropoxy)phenylcarbamoyl}ethyldimethylsulfonium p-toluenesulfonate], the LD50 in “Acute toxicity test” was 1040 mg/kg. Besides, the inhibition in vivo at 50 mg/kg in series [1] stood at 48.8%. On to `COCC(O)COc1ccc(NC(=O)CC[S+](C)C)cc1.Cc1ccc(S(=O)(=O)[O-])cc1` (centres unmarked) [Compound 7, 2-{4-(2-hydroxy-3-methoxypropoxy)phenylcarbamoyl}ethyldimethylsulfonium p-toluenesulfonate], for which, in the series “Acute toxicity test”, the 50% lethal dose (LD50) was 359 mg/kg. The compound further came in with an inhibition in vivo at 100 mg/kg in series [1] of 57%.

In the series “Acute toxicity test”, `CCOCC(O)COc1ccc(NC(=O)CC[S+](C)C)cc1` (centres unmarked) [Compound 8] had an LD50 of 254 mg/kg. For the same compound, in series [1], the inhibition in vivo at 20 mg/kg was 57%.

With `CCCOCC(O)COc1ccc(NC(=O)CC[S+](C)C)cc1` (centres unmarked) [Compound 10], the LD50 in the series “Acute toxicity test” came out at 171 mg/kg. The inhibition in vivo at 100 mg/kg in series [1] amounted to 47%.

As to `C[S+](C)CCC(=O)Nc1ccc(OCC(O)COC2CCCCC2)cc1` (centres unmarked) [Compound 17], in “Acute toxicity test”, the median lethal dose (LD50) was 93.6 mg/kg. The compound also registered an inhibition in vivo at 100 mg/kg in series [1] of 47%. On the same counts, the results for `C[S+](C)CCC(=O)Nc1ccc(OCC(O)COc2ccccc2)cc1` (centres unmarked) [Compound 18] are 112 mg/kg and 34%. For `COCC(COc1ccc(NC(=O)CC[S+](C)C)cc1)OC` (centres unmarked) [Compound 19], in the series “Acute toxicity test”, the LD50 was 254 mg/kg. Further, the inhibition in vivo at 10 mg/kg in series [1] amounted to 51.6%. Regarding `CCOCC(COc1ccc(NC(=O)CC[S+](C)C)cc1)OCC` (centres unmarked) [Compound 20], in the series “Acute toxicity test”, the LD50 worked out at 179 mg/kg. In series [1], this compound had an inhibition in vivo at 50 mg/kg of 35.1%. In “Acute toxicity test”, `CCOCC(COc1ccc(NC(=O)CC[S+](C)C)cc1)OC(C)=O` (centres unmarked) [Compound 25] gave an LD50 of 233 mg/kg. The compound further yielded an inhibition in vivo at 100 mg/kg in series [1] of 63.6%.

`CCCOCC(COc1ccc(NC(=O)CC[S+](C)C)cc1)OCCC` (centres unmarked) [Compound 29]: the LD50 in “Acute toxicity test” came out at 75.2 mg/kg. In addition, the inhibition in vivo at 50 mg/kg in series [1] turned out to be 46.2%. `CC(=O)OCC(COc1ccc(NC(=O)CC[S+](C)C)cc1)OC(C)=O` (centres unmarked) [Compound 32] displayed an LD50 in “Acute toxicity test” of 366 mg/kg. For the same compound, the inhibition in vivo at 10 mg/kg in series [1] came out at 47%. For the compound `C[S+](C)CCOc1ccccc1OCC(O)CO.Cc1ccc(S(=O)(=O)[O-])cc1` (centres unmarked) [Compound 40, 2-{2-(2,3-dihydroxypropoxy)phenoxy}ethyldimethylsulfonium p-toluenesulfonate], the LD50 in “Acute toxicity test” is 283 mg/kg. This compound showed an inhibition in vivo at 200 mg/kg in series [1] of 53.2%.

Take `C[S+](C)CCOc1cccc(OCC(O)CO)c1` (centres unmarked) [Compound 42]: in “Acute toxicity test”, the LD50 is 231 mg/kg. In series [1], this compound returned an inhibition in vivo at 200 mg/kg of 58.4%. On the same counts, the results for `C[S+](C)CCOc1ccc(OCC(O)CO)cc1` (centres unmarked) [Compound 44] are 352 mg/kg and 57%. Taken in the same sequence, the figures for `COCC(O)COc1ccc(OCC[S+](C)C)cc1.Cc1ccc(S(=O)(=O)[O-])cc1` (centres unmarked) [Compound 45, 2-{4-(2-hydroxy-3-methoxypropoxy)phenoxy}ethyldimethylsulfonium p-toluenesulfonate] were 302 mg/kg and 59%.

In series [1], `CCOCC(O)COc1ccc(OCC[S+](C)C)cc1` (centres unmarked) [Compound 46] yielded an inhibition in vivo at 100 mg/kg of 64.8%. Consider `CCCOCC(O)COc1ccc(OCC[S+](C)C)cc1` (centres unmarked) [Compound 47], for which, in “Acute toxicity test”, the LD50 came out at 293 mg/kg. Moreover, 50 mg/kg produced 39.2% inhibition in vivo in series [1]. As for `CCOCCOCC(O)COc1ccc(OCC[S+](C)C)cc1` (centres unmarked) [Compound 48], the 50% lethal dose (LD50) in the series “Acute toxicity test” stood at 302 mg/kg. Moreover, in series [1], the inhibition in vivo at 20 mg/kg is 48%. On the same counts, the results for `C[S+](C)CCOc1ccc(OCC(O)COCC2CCCO2)cc1` (centres unmarked) [Compound 49] are 221 mg/kg and 42.5%. As to `C[S+](C)CCOc1ccc(OCC(O)COc2ccccc2)cc1.Cc1ccc(S(=O)(=O)[O-])cc1` (centres unmarked) [Compound 51, 2-{4-(2-hydroxy-3-phenoxypropoxy)phenoxy}ethyldimethylsulfonium p-toluenesulfonate], the LD50 in the series “Acute toxicity test” was found to be 150 mg/kg. Further, 100 mg/kg produced 56.7% inhibition in vivo in series [1].

For the compound `CCOCC(COc1ccc(OCC[S+](C)C)cc1)OCC` (centres unmarked) [Compound 52], in the series “Acute toxicity test”, the LD50 turned out to be 132 mg/kg. In series [1], this compound showed an inhibition in vivo at 100 mg/kg of 53.3%. For `C[S+](C)CCOc1ccc(OCC(O)COC(N)=O)cc1` (centres unmarked) [Compound 54], the 50% lethal dose (LD50) in the series “Acute toxicity test” was determined as 327 mg/kg. Moreover, the inhibition in vivo at 20 mg/kg in series [1] was 51.8%. Consider `CC(=O)OCC(COc1ccc(OCC[S+](C)C)cc1)OC(C)=O` (centres unmarked) [Compound 55], for which the LD50 in the series “Acute toxicity test” worked out at 291 mg/kg. The compound further registered an inhibition in vivo at 50 mg/kg in series [1] of 55.2%.

Regarding `C[S+](C)CCOc1ccc(OCC(COC(=O)c2ccccc2)OC(=O)c2ccccc2)cc1` (centres unmarked) [Compound 56], in “Acute toxicity test”, the LD50 is 85 mg/kg. At 100 mg/kg the inhibition in vivo in series [1] was 44.7%.

Source of the values: US4556737A, “Sulfonium compounds, processes for preparing the compounds and pharmacological composiitons containing the same” (Taiho Pharmaceutical Company Limited, priority 1983, dated 1985).
